The text below walks through data of paper PMC8916643, “Molecular physiology of pumiliotoxin sequestration in a poison frog” (PLoS ONE, 2022).

The target of one series is T1, human recombinant CYP2D6 (Homo sapiens, UniProt P10635).
T1 construct: Eurofins Discovery Services (Eurofins Panlabs Inc) ran the assay
As to the kind of experiment: CYP2D6 metabolite discovery (metID). The format is in vitro ADME. Conditions: initial concentration 10 μM. As for the experimental part:
Assays for human CYP activity (CYP phenotyping), CYP2D6 metabolite discovery (metID), ion channel inhibition (CiPA), and G-protein coupled receptor (GPCR) activity (gpcrMAX) were performed through Eurofins Discovery Services (Eurofins Panlabs Inc, St. Charles MO, USA). In the CYP phenotyping panel, human recombinant CYP1A2, CYP2B6, CYP2C8, CYP2C9, CYP2C19, CYP2D6, and CYP3A4 were included in the assay. A concentration of 1E-07 M of PTX 251D was tested, and the percent compound remaining was quantified at 0, 15, 30, 45, and 60 minutes using HPLC-MS/MS. As a positive control, a reference compound was used for each CYP tested (see S1 File for results). In the CYP2D6 metabolism assay, human recombinant CYP2D6 was incubated with an initial concentration of 10 μM and metabolites were quantified after 90 minutes using LC-MS/MS. Two replicates were used for the CYP phenotyping panel and one replicate was used for CYP2D6 metabolite assay. The CiPA assay was a cell-based QPatch on voltage-gated sodium channel NaV1.5 (peak and late/agonist), voltage-gated potassium channels Kv4.3/KChIP2, hERG, KCNQ1/minK, Kir2.1, and voltage-gated calcium channel Cav1.2. The concentrations of PTX 251D assayed were 3, 10, and 30 μM, and a reference compound for each channel was used (see S1 File for results and individual QPatch parameters). […]

Series [1] has as its system mammalian and insect voltage-gated sodium and potassium channels. Also on record: method as in PMID 18061227. Particulars: 100 μM; strongest effect on hKv1.3; cited from earlier work.
For series [2], the system named is gene expression in intestines, liver, and skin. As to the kind of experiment: RNA sequencing, differential gene expression after PTX 251D feeding. The format is in vivo, Dendrobates tinctorius. The source says:
Lab-reared (non-toxic) Dendrobates tinctorius were housed in terraria with live plants, a water pool, and a shelter. Ten adult females were size-matched, randomly assigned to control or experimental groups (N = 5 per group), and then housed individually. To measure the specific effects of PTX 251D compared to a background toxicity, the control group was fed 0.01% DHQ (Sigma-Aldrich, St. Louis, USA) in a solution of 1% EtOH and the experimental group was fed a solution of 0.01% DHQ and 0.01% PTX 251D (PepTech, Burlington, MA, USA) in a solution of 1% EtOH in water. Each frog was fed 15 μL each day for five days by pipetting the solution directly into the mouth between 10am-12pm. […]
RNA extraction followed the Trizol (Thermo Fisher Scientific, Waltham, MA, USA) protocol outlined in Caty et al. 2019 [16] and according to the manufacturer’s instructions. […] Libraries were quantified with quantitative PCR (NEBnext Library quantification kit, New England Biolabs, Ipswich, USA) and a Agilent Bioanalyzer High Sensitivity DNA chip, both according to manufacturer’s instructions. All libraries were pooled at equimolar amounts and were sequenced on four lanes of an Illumina HiSeq 4000 machine to obtain 150 bp paired-end reads. […]

T1 sequence (P10635 whole entry): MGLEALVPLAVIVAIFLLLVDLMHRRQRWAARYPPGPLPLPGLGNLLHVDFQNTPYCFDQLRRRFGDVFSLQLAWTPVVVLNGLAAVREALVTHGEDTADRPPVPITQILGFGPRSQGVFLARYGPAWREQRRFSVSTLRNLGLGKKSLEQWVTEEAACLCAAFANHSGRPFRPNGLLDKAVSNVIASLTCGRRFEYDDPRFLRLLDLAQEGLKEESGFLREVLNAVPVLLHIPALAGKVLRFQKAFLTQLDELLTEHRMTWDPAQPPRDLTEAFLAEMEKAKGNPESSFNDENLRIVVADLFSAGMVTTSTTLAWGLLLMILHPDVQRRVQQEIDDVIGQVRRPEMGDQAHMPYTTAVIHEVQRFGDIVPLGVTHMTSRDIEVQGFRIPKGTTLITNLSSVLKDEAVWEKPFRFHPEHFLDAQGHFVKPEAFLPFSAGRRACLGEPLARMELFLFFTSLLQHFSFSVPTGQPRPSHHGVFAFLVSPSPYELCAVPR

For the compound `CCCCC(C)C=C1CN2CCCC2C(C)(O)C1` (centres unmarked) [PTX 251D, pumiliotoxin (PTX 251D)], on human recombinant CYP2D6 (90 minutes, one or two hydroxylation events), the “metabolites identified with CYP2D6” value is “two metabolites were identified”. Further, the “clearance of PTX 251D in CYP2D6 metabolite discovery screen” value on human recombinant CYP2D6 (after 90 minutes, LC-MS/MS) is listed as “completely cleared”. Further, the “effect on voltage-gated sodium and potassium channels” value in series [1] is “inhibits both types of channels”. Besides, the “expression of CYP2D6-like contig” value in series [2] (intestines of frogs fed PTX 251D) is listed as “upregulated”. The “CYP3A29 expression log2FC” value in series [2] (intestines, DHQ+PTX vs DHQ) is given as 5.72.
